Reference: US12366572B2, “Activation of bioluminescence by structural complementation” (Promega Corporation, priority 2013, dated 2025)

Target: NLpoly 11S (Oplophorus gracilirostris, UniProt Q9GV45, A31E/A60N/A81I/D135N/F58L/F95D/G184S/G42A/G62A/G78A/G94A/G98A/H120P/I103V/I117V/I134L/K70R/L176M/L26M/L54V/L73R/L99Q/M102E/N171T/P142E/Q151K/Q38E/Q45L/T27V/V71I/Y165I)
Assay: biochemical
Format: binding

NLpoly 11S, sequence (Q9GV45 26-184 with the stated changes limits assumed): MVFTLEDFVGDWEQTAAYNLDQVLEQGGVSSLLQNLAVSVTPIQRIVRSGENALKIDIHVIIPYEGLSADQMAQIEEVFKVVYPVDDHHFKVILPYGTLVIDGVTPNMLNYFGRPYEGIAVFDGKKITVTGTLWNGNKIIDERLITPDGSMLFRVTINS

| Molecule | Kd |
| --- | --- |
| CC[C@H](C)[C@H](NC(=O)[C@H](CCCCN)NC(=O)[C@H](CCC(=O)O)NC(=O)[C@H](Cc1ccccc1)NC(=O)[C@H](CC(C)C)NC(=O)[C@H](CCCNC(=N)N)NC(=O)[C@H](Cc1ccc(O)cc1)NC(=O)CNC(=O)[C@@H](NC(=O)[C@@H](NC(C)=O)C(C)C)[C@@H](C)O)C(=O)N[C@@H](CO)C(N)=O [array2.19, VTGYRLFEKIS] | 0.605 µM |
| Ac-VEGYRLFEEAS-NH2 [array2.80, VEGYRLFEEAS] | 1420 µM |
| Ac-VEGYRLFEKAL-NH2 [array2.101, VEGYRLFEKAL] | 12.6 µM |
| Ac-VEGYRLFEKAS-NH2 [array2.74, VEGYRLFEKAS] | 4.14 µM |
| Ac-VEGYRLFEKEL-NH2 [array2.102, VEGYRLFEKEL] | 5.79 µM |
| Ac-VEGYRLFEKES-NH2 [array2.75, VEGYRLFEKES] | 2.97 µM |
| Ac-VEGYRLFEKIL-NH2 [array2.100, VEGYRLFEKIL] | 10.6 µM |
| Ac-VEGYRLFEKIS-NH2 [array2.73, VEGYRLFEKIS] | 2.15 µM |
| Ac-VEGYRLFEQAL-NH2 [array2.104, VEGYRLFEQAL] | 336 µM |
| Ac-VEGYRLFEQAS-NH2 [array2.77, VEGYRLFEQAS] | 48.3 µM |
| Ac-VEGYRLFEQES-NH2 [array2.78, VEGYRLFEQES] | 252 µM |
| Ac-VEGYRLFEQIS-NH2 [array2.76, VEGYRLFEQIS] | 52.8 µM |
| Ac-VEGYRLFKEAL-NH2 [array2.89, VEGYRLFKEAL] | 42.4 µM |
| Ac-VEGYRLFKEAS-NH2 [array2.62, VEGYRLFKEAS] | 22.1 µM |
| Ac-VEGYRLFKEEL-NH2 [array2.90, VEGYRLFKEEL] | 101 µM |
| Ac-VEGYRLFKEES-NH2 [array2.63, VEGYRLFKEES] | 220 µM |
| Ac-VEGYRLFKEIL-NH2 [array2.88, VEGYRLFKEIL] | 17.8 µM |
| Ac-VEGYRLFKEIS-NH2 [array2.61, VEGYRLFKEIS] | 14.4 µM |
| Ac-VEGYRLFKKAL-NH2 [array2.83, VEGYRLFKKAL] | 1.59 µM |
| Ac-VEGYRLFKKAS-NH2 [array2.56, VEGYRLFKKAS] | 0.641 µM |
| Ac-VEGYRLFKKEL-NH2 [array2.84, VEGYRLFKKEL] | 1.41 µM |
| Ac-VEGYRLFKKES-NH2 [array2.57, VEGYRLFKKES] | 0.891 µM |
| Ac-VEGYRLFKKIL-NH2 [array2.82, VEGYRLFKKIL] | 0.563 µM |

| Molecule | Kd |
| --- | --- |
| Ac-VEGYRLFKKIS-NH2 [array2.55, VEGYRLFKKIS] | 0.078 µM |
| Ac-VEGYRLFKQAL-NH2 [array2.86, VEGYRLFKQAL] | 2.27 µM |
| Ac-VEGYRLFKQAS-NH2 [array2.59, VEGYRLFKQAS] | 2.09 µM |
| Ac-VEGYRLFKQEL-NH2 [array2.87, VEGYRLFKQEL] | 12.6 µM |
| Ac-VEGYRLFKQIL-NH2 [array2.85, VEGYRLFKQIL] | 10.3 µM |
| Ac-VEGYRLFKQIS-NH2 [array2.58, VEGYRLFKQIS] | 2.09 µM |
| Ac-VEGYRLFQEAL-NH2 [array2.98, VEGYRLFQEAL] | 99.9 µM |
| Ac-VEGYRLFQEAS-NH2 [array2.71, VEGYRLFQEAS] | 24 µM |
| Ac-VEGYRLFQEIS-NH2 [array2.70, VEGYRLFQEIS] | 230 µM |
| Ac-VEGYRLFQKAL-NH2 [array2.92, VEGYRLFQKAL] | 2.02 µM |
| Ac-VEGYRLFQKAS-NH2 [array2.65, VEGYRLFQKAS] | 1.93 µM |
| Ac-VEGYRLFQKEL-NH2 [array2.93, VEGYRLFQKEL] | 1.69 µM |
| Ac-VEGYRLFQKES-NH2 [array2.66, VEGYRLFQKES] | 2.87 µM |
| Ac-VEGYRLFQKIL-NH2 [array2.91, VEGYRLFQKIL] | 2.08 µM |
| Ac-VEGYRLFQKIS-NH2 [array2.64, VEGYRLFQKIS] | 0.586 µM |
| Ac-VEGYRLFQQAL-NH2 [array2.95, VEGYRLFQQAL] | 18.8 µM |
| Ac-VEGYRLFQQAS-NH2 [array2.68, VEGYRLFQQAS] | 20 µM |
| Ac-VEGYRLFQQEL-NH2 [array2.96, VEGYRLFQQEL] | 99.4 µM |
| Ac-VEGYRLFQQIL-NH2 [array2.94, VEGYRLFQQIL] | 9.39 µM |
| Ac-VEGYRLFQQIS-NH2 [array2.67, VEGYRLFQQIS] | 8.14 µM |
| Ac-VTGYRLFEEEL-NH2 [array2.54, VTGYRLFEEEL] | 68.3 µM |
| Ac-VTGYRLFEEIL-NH2 [array2.52, VTGYRLFEEIL] | 104 µM |
| Ac-VTGYRLFEKAL-NH2 [array2.47, VTGYRLFEKAL] | 1.81 µM |

| Molecule | Kd |
| --- | --- |
| Ac-VTGYRLFEKAS-NH2 [array2.20, VTGYRLFEKAS] | 1.79 µM |
| Ac-VTGYRLFEKEL-NH2 [array2.48, VTGYRLFEKEL] | 2.44 µM |
| Ac-VTGYRLFEKIL-NH2 [array2.46, VTGYRLFEKIL] | 1.92 µM |
| Ac-VTGYRLFEQAL-NH2 [array2.50, VTGYRLFEQAL] | 40.4 µM |
| Ac-VTGYRLFEQAS-NH2 [array2.23, VTGYRLFEQAS] | 4.17 µM |
| Ac-VTGYRLFEQEL-NH2 [array2.51, VTGYRLFEQEL] | 85 µM |
| Ac-VTGYRLFEQES-NH2 [array2.24, VTGYRLFEQES] | 7.83 µM |
| Ac-VTGYRLFEQIL-NH2 [array2.49, VTGYRLFEQIL] | 124 µM |
| Ac-VTGYRLFEQIS-NH2 [array2.22, VTGYRLFEQIS] | 10.8 µM |
| Ac-VTGYRLFKEAL-NH2 [array2.35, VTGYRLFKEAL] | 5.15 µM |
| Ac-VTGYRLFKEAS-NH2 [array2.8, VTGYRLFKEAS] | 2.57 µM |
| Ac-VTGYRLFKEEL-NH2 [array2.36, VTGYRLFKEEL] | 7.78 µM |
| Ac-VTGYRLFKEES-NH2 [array2.9, VTGYRLFKEES] | 3.86 µM |
| Ac-VTGYRLFKEIL-NH2 [array2.34, VTGYRLFKEIL] | 4.41 µM |
| Ac-VTGYRLFKEIS-NH2 [array2.7, VTGYRLFKEIS] | 4.44 µM |
| Ac-VTGYRLFKKAL-NH2 [array2.29, VTGYRLFKKAL] | 0.275 µM |
| Ac-VTGYRLFKKAS-NH2 [array2.2, VTGYRLFKKAS] | 0.241 µM |
| Ac-VTGYRLFKKEL-NH2 [array2.30, VTGYRLFKKEL] | 0.671 µM |
| Ac-VTGYRLFKKES-NH2 [array2.3, VTGYRLFKKES] | 0.773 µM |
| Ac-VTGYRLFKKIL-NH2 [array2.28, VTGYRLFKKIL] | 0.0766 µM |
| Ac-VTGYRLFKKIS-NH2 [array2.1, VTGYRLFKKIS] | 0.0133 µM |
| Ac-VTGYRLFKQAL-NH2 [array2.32, VTGYRLFKQAL] | 3.56 µM |
| Ac-VTGYRLFKQAS-NH2 [array2.5, VTGYRLFKQAS] | 1.95 µM |

| Molecule | Kd |
| --- | --- |
| Ac-VTGYRLFKQEL-NH2 [array2.33, VTGYRLFKQEL] | 1.95 µM |
| Ac-VTGYRLFKQES-NH2 [array2.6, VTGYRLFKQES] | 1.35 µM |
| Ac-VTGYRLFKQIL-NH2 [array2.31, VTGYRLFKQIL] | 2.99 µM |
| Ac-VTGYRLFKQIS-NH2 [array2.4, VTGYRLFKQIS] | 0.746 µM |
| Ac-VTGYRLFQEAL-NH2 [array2.44, VTGYRLFQEAL] | 16 µM |
| Ac-VTGYRLFQEEL-NH2 [array2.45, VTGYRLFQEEL] | 35.4 µM |
| Ac-VTGYRLFQEES-NH2 [array2.18, VTGYRLFQEES] | 67.3 µM |
| Ac-VTGYRLFQEIL-NH2 [array2.43, VTGYRLFQEIL] | 17.3 µM |
| Ac-VTGYRLFQEIS-NH2 [array2.16, VTGYRLFQEIS] | 2.56 µM |
| Ac-VTGYRLFQKAL-NH2 [array2.38, VTGYRLFQKAL] | 0.975 µM |
| Ac-VTGYRLFQKAS-NH2 [array2.11, VTGYRLFQKAS] | 0.748 µM |
| Ac-VTGYRLFQKEL-NH2 [array2.39, VTGYRLFQKEL] | 2.48 µM |
| Ac-VTGYRLFQKES-NH2 [array2.12, VTGYRLFQKES] | 0.417 µM |
| Ac-VTGYRLFQKIL-NH2 [array2.37, VTGYRLFQKIL] | 0.362 µM |
| Ac-VTGYRLFQKIS-NH2 [array2.10, VTGYRLFQKIS] | 0.0812 µM |
| Ac-VTGYRLFQQAS-NH2 [array2.14, VTGYRLFQQAS] | 1.11 µM |
| Ac-VTGYRLFQQEL-NH2 [array2.42, VTGYRLFQQEL] | 19 µM |
| Ac-VTGYRLFQQES-NH2 [array2.15, VTGYRLFQQES] | 7.49 µM |
| Ac-VTGYRLFQQIL-NH2 [array2.40, VTGYRLFQQIL] | 122 µM |
| Ac-VTGYRLFQQIS-NH2 [array2.13, VTGYRLFQQIS] | 0.876 µM |
